Where “and” joins values, the source holds several entries; their conditions need not be identical. Equal entries are not always repeated. Inconclusive results and toxic doses are left out. How the source made its calls: active means survival T/C of 150% or more; inactive means T/C below 125% in these data.
System: BDF1 mice, P388 leukemia ip, median survival T/C
Assay: NCI In Vivo Anticancer Drug Screen. Data for tumor model P388 Leukemia (intraperitoneal) in B6D2F1 (BDF1) mice
Settings: endpoint: median survival time, higher = longer survival
Outline: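 Reported as T/C, where T is the survival measurement in dosed animals and C the same measurement in vehicle controls.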

[1] = dose: 50.0 mg/kg/injection, schedule: Q01DX009 (ip), vehicle: saline
[2] = dose: 100.0 mg/kg/injection, schedule: Q01DX009 (ip), vehicle: saline
[3] = dose: 100.0 mg/kg/injection, schedule: Q04DX003 (ip), vehicle: saline
[4] = dose: 200.0 mg/kg/injection, schedule: Q01DX009 (ip), vehicle: saline
[5] = dose: 200.0 mg/kg/injection, schedule: Q04DX003 (ip), vehicle: saline
[6] = dose: 400.0 mg/kg/injection, schedule: Q04DX003 (ip), vehicle: saline
[7] = dose: 100.0 mg/kg/injection, schedule: Q01DX001 (ip), vehicle: Klucel (hydroxypropylcellulose) (HPC)
[8] = dose: 200.0 mg/kg/injection, schedule: Q01DX001 (ip), vehicle: Klucel (hydroxypropylcellulose) (HPC)
[9] = dose: 400.0 mg/kg/injection, schedule: Q01DX001 (ip), vehicle: Klucel (hydroxypropylcellulose) (HPC)
[10] = dose: 100.0 mg/kg/injection, schedule: Q01DX009 (ip), vehicle: Klucel (hydroxypropylcellulose) (HPC)
[11] = dose: 100.0 mg/kg/injection, schedule: Q04DX003 (ip), vehicle: Klucel (hydroxypropylcellulose) (HPC)
[12] = dose: 200.0 mg/kg/injection, schedule: Q01DX009 (ip), vehicle: Klucel (hydroxypropylcellulose) (HPC)
[13] = dose: 200.0 mg/kg/injection, schedule: Q04DX003 (ip), vehicle: Klucel (hydroxypropylcellulose) (HPC)
[14] = dose: 400.0 mg/kg/injection, schedule: Q04DX003 (ip), vehicle: Klucel (hydroxypropylcellulose) (HPC)
[15] = dose: 400.0 mg/kg/injection, schedule: Q01DX009 (ip), vehicle: saline
[16] = dose: 100.0 mg/kg/injection, schedule: Q04DX003 (ip), vehicle: saline with Tween-80
[17] = dose: 200.0 mg/kg/injection, schedule: Q04DX003 (ip), vehicle: saline with Tween-80
[18] = dose: 25.0 mg/kg/injection, schedule: Q04DX003 (ip), vehicle: saline with Tween-80
[19] = dose: 50.0 mg/kg/injection, schedule: Q04DX003 (ip), vehicle: saline with Tween-80
[20] = dose: 100.0 mg/kg/injection, schedule: Q01DX009 (ip), vehicle: saline with Tween-80
[21] = dose: 25.0 mg/kg/injection, schedule: Q01DX009 (ip), vehicle: saline

Measured: T/C

O=C1C(Cl)=C(Cl)C(=O)C(/C=C/N2CCOCC2)=C1Cl
inactive: dose: 6.25 mg/kg/injection, schedule: Q01DX001 (ip), vehicle: saline with Tween-80 109 % of control | dose: 12.5 mg/kg/injection, schedule: Q01DX001 (ip), vehicle: saline with Tween-80 117 % of control | dose: 25.0 mg/kg/injection, schedule: Q01DX001 (ip), vehicle: saline with Tween-80 104 % of control | dose: 50.0 mg/kg/injection, schedule: Q01DX001 (ip), vehicle: saline with Tween-80 113 % of control

O=C(NC(CSC(c1ccccc1)(c1ccccc1)c1ccccc1)C(=O)O)OCc1ccccc1 (stereo not drawn)
inactive: [1] 100 % of control and 110 % of control | [2] 122 % of control | [3] 100 % of control | [4] 118 % of control | [5] 104 % of control | [6] 100 % of control

O=C(O)c1ccc(S(=O)(=O)O)cc1C(=O)O
inactive: dose: 50.0 mg/kg/injection, schedule: Q04DX003 (ip), vehicle: saline 104 % of control | [3] 100 % of control | [5] 91 % of control

COc1ccc(OC)c(NC(=O)C2CC2)c1
inactive: dose: 75.0 mg/kg/injection, schedule: Q01DX009 (ip), vehicle: saline with Tween-80 100 % of control | dose: 100.0 mg/kg/injection, schedule: Q04DX003 (ip), vehicle: saline sonified 109 % of control | dose: 150.0 mg/kg/injection, schedule: Q01DX009 (ip), vehicle: saline with Tween-80 100 % of control | dose: 200.0 mg/kg/injection, schedule: Q04DX003 (ip), vehicle: saline sonified 113 % of control | dose: 300.0 mg/kg/injection, schedule: Q01DX009 (ip), vehicle: saline with Tween-80 100 % of control | dose: 400.0 mg/kg/injection, schedule: Q04DX003 (ip), vehicle: saline sonified 100 % of control

COc1ccc(Cl)cc1NC(=O)Nc1c(C)n(C)n(-c2ccccc2)c1=O
inactive: [7] 100 % of control | [8] 100 % of control | [9] 95 % of control

CC[N+](C)(C)Cc1ccccc1
inactive: dose: 6.25 mg/kg/injection, schedule: Q01DX009 (ip), vehicle: saline 106 % of control | dose: 12.5 mg/kg/injection, schedule: Q01DX009 (ip), vehicle: saline 106 % of control

CCOc1ccc2nc(/C=C\c3cc4c5c(c3)CCCN5CCC4)ccc2c1
inactive: [10] 90 % of control | [11] 100 % of control | [12] 109 % of control | [13] 100 % of control | dose: 400.0 mg/kg/injection, schedule: Q01DX009 (ip), vehicle: Klucel (hydroxypropylcellulose) (HPC) 104 % of control | [14] 95 % of control

CCOC(=O)C1CCCNC1 (stereo not drawn)
inactive: [2] 104 % of control | [3] 95 % of control | [4] 100 % of control | [5] 91 % of control | [15] 112 % of control | [6] 87 % of control

CC1OC(O[C@H]2/C=C/C=C/C=C/C=C/C=C/C=C/C=C/[C@H](C)[C@@H](O)[C@@H](C)[C@H](C)OC(=O)C[C@H](O)C[C@H](O)CC[C@@H](O)[C@H](O)C[C@H](O)C[C@]3(O)C[C@H](O)[C@@H](C(=O)O)[C@H](C2)O3)C(O)C(N)C1O (stereo partly drawn)
inactive: dose: 20.0 mg/kg/injection, schedule: Q04DX003 (ip), vehicle: clinical formulation 109 % of control | dose: 40.0 mg/kg/injection, schedule: Q04DX003 (ip), vehicle: clinical formulation 97 % of control

O=C(OC1C=CCC1)c1ccc([N+](=O)[O-])cc1 (stereo not drawn)
inactive: [11] 100 % of control | [13] 100 % of control | [14] 100 % of control

O=S(=O)(F)c1cccc(C[P+](c2ccccc2)(c2ccccc2)c2ccccc2)c1
inactive: dose: 5.5 mg/kg/injection, schedule: Q01DX009 (ip), vehicle: Klucel (hydroxypropylcellulose) (HPC) 118 % of control | dose: 70.0 mg/kg/injection, schedule: Q04DX003 (ip), vehicle: Klucel (hydroxypropylcellulose) (HPC) 118 % of control and 120 % of control | dose: 73.0 mg/kg/injection, schedule: Q04DX003 (ip), vehicle: Klucel (hydroxypropylcellulose) (HPC) 118 % of control | dose: 170.0 mg/kg/injection, schedule: Q04DX003 (ip), vehicle: Klucel (hydroxypropylcellulose) (HPC) 95 % of control | dose: 255.0 mg/kg/injection, schedule: Q04DX003 (ip), vehicle: Klucel (hydroxypropylcellulose) (HPC) 108 % of control and 120 % of control

N\C([S-])=N/N=C\C(=N/N=C(\N)[S-])C(O)C(O)C(O)CO.[Rh+2] (stereo not drawn)
inactive: [7] 100 % of control | [8] 104 % of control | [9] 109 % of control

O=c1cc(-c2cccnc2)oc2c1ccc1ccccc12
inactive: dose: 12.5 mg/kg/injection, schedule: Q01DX009 (ip), vehicle: other 89 % of control | dose: 25.0 mg/kg/injection, schedule: Q01DX009 (ip), vehicle: other 91 % of control | dose: 50.0 mg/kg/injection, schedule: Q01DX009 (ip), vehicle: other 95 % of control | dose: 100.0 mg/kg/injection, schedule: Q01DX009 (ip), vehicle: other 91 % of control | dose: 200.0 mg/kg/injection, schedule: Q01DX009 (ip), vehicle: other 87 % of control

CC(=O)OC1CCC2(C)C(=CCC3C2CCC2(C)C(OC(=O)c4ccccc4)CCC32)C1 (stereo not drawn)
inactive: [7] 100 % of control | [2] 110 % of control | [11] 120 % of control | [8] 100 % of control | [4] 95 % of control | [13] 105 % of control | [9] 100 % of control | [15] 105 % of control | [14] 110 % of control

C[N+]1(C)N=C([O-])N(c2ccccc2Cl)C1=O
inactive: [16] 100 % of control | [17] 108 % of control | dose: 400.0 mg/kg/injection, schedule: Q04DX003 (ip), vehicle: saline with Tween-80 99 % of control

c1ccc2c(SSc3cccc4ccccc34)cccc2c1
inactive: [18] 108 % of control | [19] 108 % of control | [16] 112 % of control | [17] 103 % of control

OC1(C#CC2(O)CCCCC2)CCCCC1
inactive: dose: 50.0 mg/kg/injection, schedule: Q01DX009 (ip), vehicle: Klucel (hydroxypropylcellulose) (HPC) 96 % of control | dose: 50.0 mg/kg/injection, schedule: Q04DX003 (ip), vehicle: Klucel (hydroxypropylcellulose) (HPC) 109 % of control | [10] 100 % of control | [11] 109 % of control | [12] 96 % of control | [13] 100 % of control

N#CC(C(N)=O)c1ccccc1 (stereo not drawn)
inactive: [18] 102 % of control | [19] 108 % of control | [16] 97 % of control

O/C(=C/C(=S)S)c1ccco1
inactive: dose: 25.0 mg/kg/injection, schedule: Q01DX009 (ip), vehicle: water 93 % of control | dose: 25.0 mg/kg/injection, schedule: Q04DX003 (ip), vehicle: water 94 % of control | dose: 50.0 mg/kg/injection, schedule: Q01DX009 (ip), vehicle: water 91 % of control | dose: 50.0 mg/kg/injection, schedule: Q04DX003 (ip), vehicle: water 93 % of control | dose: 100.0 mg/kg/injection, schedule: Q01DX009 (ip), vehicle: water 92 % of control | dose: 200.0 mg/kg/injection, schedule: Q01DX009 (ip), vehicle: water 102 % of control | dose: 200.0 mg/kg/injection, schedule: Q04DX003 (ip), vehicle: water 93 % of control | dose: 400.0 mg/kg/injection, schedule: Q01DX009 (ip), vehicle: water 93 % of control | dose: 400.0 mg/kg/injection, schedule: Q04DX003 (ip), vehicle: water 97 % of control

CCOCCC(=O)O
inactive: [3] 104 % of control | [5] 109 % of control | [6] 90 % of control

CC(Br)C(=O)c1ccc(OCc2ccccc2)cc1 (stereo not drawn)
inactive: dose: 50.0 mg/kg/injection, schedule: Q01DX009 (ip), vehicle: saline with Tween-80 117 % of control | [20] 119 % of control

CC(C)(Cl)CNC(=O)c1ccc([N+](=O)[O-])cc1
inactive: [11] 91 % of control | [13] 104 % of control | [14] 100 % of control

CC(=O)OC1CCC2(C)C(CC(=O)C(C)C23CCC2(C=COC2)O3)C1(C)C (stereo not drawn)
inactive: [21] 113 % of control | [1] 105 % of control | [20] 109 % of control | [2] 122 % of control | dose: 200.0 mg/kg/injection, schedule: Q01DX009 (ip), vehicle: saline with Tween-80 102 % of control

CCCC(N)C(=O)c1ccccc1 (stereo not drawn)
inactive: [21] 109 % of control | [1] 109 % of control
